Five compounds from publication PMC6479711, “Chemical Constituents of Anacardium occidentale as Inhibitors of Trypanosoma cruzi Sirtuins” (Molecules, 2019) can be followed below.

Where two headings read alike, the source gives them in different places.

The test system of data set [1] is intracellular amastigotes of T. cruzi in infected hFIB. Briefly: In vitro T. cruzi infection assay (intracellular amastigotes in hFIB, high content imaging). It counts as cell-based, Trypanosoma cruzi. Particulars: read-out: Amastigote EC50 ± SEM. The method, then:
All experiments were performed with the Y strain of T. cruzi. […] The culture was washed with saline solution and infected with trypomastigotes (10 parasites:1 host cell). Following 24 h of incubation, the non-internalized parasites were removed by washing with saline solution, and fresh medium, with or without compounds at different concentrations, was added to the culture before the incubations proceeded for 72 h. Cells were then fixed and stained by the addition of 50 μL of a solution containing 4% paraformaldehyde and 4 μM Draq5 DNA dye (BioStatus, Shepshed, UK) per well. Plates were imaged in an Operetta High Content Imaging System (PerkinElmer, Waltham, MA, USA) confocal microscope using a 10X air objective. Nine images were collected from each well for reliable statistical analysis. The percentage of intracellular parasites was determined and compared to the negative control, and compound antiparasitic activity was also expressed as EC50. The reference drug, benznidazole, was used as the positive control at 50 µM. Each drug concentration was carried out in triplicate.

For data set [2], the system named is Trypomastigote forms of T. cruzi (Y strain). Briefly: Activity against trypomastigotes (viable parasite count). It counts as cell-based, Trypanosoma cruzi. Particulars: for EC50: read-out: Trypomastigote EC50 ± SEM. The method, then:
All experiments were performed with the Y strain of T. cruzi. Trypomastigote forms of T. cruzi were obtained from the supernatant of infected LLC-MK2 cells and maintained in DMEM supplemented with 10% FBS and Penicillin-Streptomycin (100 U/mL) (all from Gibco/Life Technologies) at 37 °C with 5% CO2.
Trypomastigotes were incubated in 96-well plates (2 × 10^6 cells/mL) in DMEM, in the presence or absence of the compounds at different concentrations for 24 h. […] Each compound concentration was tested in triplicate, and three independent experiments were performed. The reference drug, benznidazole, was used as the positive control.

Data set [3] deals with Human primary skin fibroblasts (hFIB). Briefly: Host cell toxicity (AlamarBlue). Particulars: for hFIB CC50 ± SEM: hFIB viability 72 h after treatment. It counts as cell-based. The method, then: (§1) Human primary skin fibroblasts (hFIB) were obtained from patient skin biopsy and cultured in Dulbecco’s Modified Eagle Medium (DMEM) supplemented with 10% fetal bovine serum (FBS) and Penicillin-Streptomycin (0.2 U/mL) (all from Gibco/Life Technologies, Grand Island, NY, USA). The cells were seeded on 96-well plates at 3 × 10^4 cells/mL and treated with the drugs for 72 h of incubation time. Following the treatments, cells were washed with saline solution twice, and cell viability was determined by the AlamarBlue assay (Thermo Fisher Scientific, Carlsbad, CA, USA), according to the manufacturer’s instructions. Colorimetric readings were performed after 24 h at 570 and 600 nm. Fifty-percent cytotoxic concentration (CC50) values were calculated using data points gathered from three independent experiments.
(The colour change of resazurin is a common sign of viable cells or microbes.)

Data set [4] can be described thus: Host cell toxicity (AlamarBlue). It counts as cell-based, human. Particulars: human, hFIB viability 72 h after treatment, read-out: hFIB CC50 ± SEM. The method, then:
as §1

Data set [5] concerns amastigote forms of T. cruzi in infected hFIB. The experiment in a line: In vitro drug combination of compound 2 and benznidazole in infected hFIB (Chou-Talalay CI). The data set is classed as cell-based. Particulars: Trypanosoma cruzi, 72 h, read-out: EC50 ± SD, alone. The method, then:
The culture was washed with saline solution and infected with trypomastigotes (10 parasites:1 host cell). Following 24 h of incubation, the non-internalized parasites were removed by washing with saline solution, and fresh medium, with or without compounds at different concentrations, was added to the culture before the incubations proceeded for 72 h. Cells were then fixed and stained by the addition of 50 μL of a solution containing 4% paraformaldehyde and 4 μM Draq5 DNA dye (BioStatus, Shepshed, UK) per well. Plates were imaged in an Operetta High Content Imaging System (PerkinElmer, Waltham, MA, USA) confocal microscope using a 10X air objective. Nine images were collected from each well for reliable statistical analysis. The percentage of intracellular parasites was determined and compared to the negative control, and compound antiparasitic activity was also expressed as EC50. The reference drug, benznidazole, was used as the positive control at 50 µM. Each drug concentration was carried out in triplicate.

In data set [6] the target is TcSir2rp3 (Trypanosoma cruzi, UniProt Q4E5B9, K2R). Briefly: TcSir2rp3 deacetylase activity assay (fluorogenic peptide, NAD+). The data set is classed as biochemical. The method, then:
Recombinant TcSir2rp3 was obtained as described previously by. The TcSir2rp3 gene was amplified from the genomic DNA of the T. cruzi Y strain using the oligonucleotides TcSir2rp3_BamHI_F_5′-[…] AGG-3′ and TcSir2rp3_XhoI_R_5′-[…]-3′ and cloned into pET28a (Novagen, Itapira, Brazil). The recombinant vector was used to transform ArcticExpress DE3 bacteria (Agilent Technologies) and protein was expressed by induction with 0.1 mM IPTG at 12 °C.
Deacetylase assays were performed from the protocol established previously by. In summary, the reaction was performed in two steps. In the first step, a synthetic peptide as the substrate (Abz-Gly-Pro-acetyl-Lys-Ser-Gln-EDDnp, where Abz is ortho-aminobenzoic acid and EDDnp is N-[2,4-dinitrophenyl]ethylenediamine) was dissolved in 50 µL of 25 mM Tris-HCl (pH 8.0), 137 mM NaCl, 2.7 mM KCl, and 1 mM MgCl2 containing 0.6 mM NAD^+ (Sigma-Aldrich). TcSir2rp1 or TcSir2rp3 were added and the reactions performed for 4 h at 30 °C. In the inhibition experiments, the enzyme was pre-treated for 30 min at room temperature with the indicated compounds and the addition of the substrate started the reaction. […] After further incubation for 15 min, the fluorescence at 420 nm was read (excitation, 320 nm) in a SpectraMax M3 plate reader (Molecular Devices, Sunnyvale, CA, USA).

Data set [7] concerns the target TcSir2rp1 (Trypanosoma cruzi, UniProt Q4DVL9). Briefly: TcSir2rp1 deacetylase activity assay (fluorogenic peptide, NAD+). It counts as biochemical. Particulars: recombinant enzyme; 30 min pre-incubation; sirtuin activity determined 4 h after incubation; read-out: TcSir2rp1 EC50 ± SEM.
Description: Deacetylase assays were performed from the protocol established previously by [8]. In summary, the reaction was performed in two steps. In the first step, a synthetic peptide as the substrate (Abz-Gly-Pro-acetyl-Lys-Ser-Gln-EDDnp, where Abz is ortho-aminobenzoic acid and EDDnp is N-[2,4-dinitrophenyl]ethylenediamine) was dissolved in 50 µL of 25 mM Tris-HCl (pH 8.0), 137 mM NaCl, 2.7 mM KCl, and 1 mM MgCl2 containing 0.6 mM NAD^+ (Sigma-Aldrich). TcSir2rp1 or TcSir2rp3 were added and the reactions performed for 4 h at 30 °C. In the inhibition experiments, the enzyme was pre-treated for 30 min at room temperature with the indicated compounds and the addition of the substrate started the reaction. In the second step, the reactions were stopped with 50 µL of a solution containing 12 mM nicotinamide in 100 mM NaCl and 50 mM Tris-HCl (pH 8.0), in the absence or presence of 0.6 mg/mL trypsin (Sigma-Aldrich). After further incubation for 15 min, the fluorescence at 420 nm was read (excitation, 320 nm) in a SpectraMax M3 plate reader (Molecular Devices, Sunnyvale, CA, USA).
Where [8] appears, read: infected hFIB, 72 h after treatment.
The mark [9] stands for this setting: Y strain, 24 h after incubation with compounds.
[10] abbreviates: human primary skin fibroblasts (hFIB).
[11] abbreviates: Trypanosoma cruzi, 72 h, infected hFIB, 72 h after treatment.

TcSir2rp3, sequence (Q4E5B9 whole entry K2R): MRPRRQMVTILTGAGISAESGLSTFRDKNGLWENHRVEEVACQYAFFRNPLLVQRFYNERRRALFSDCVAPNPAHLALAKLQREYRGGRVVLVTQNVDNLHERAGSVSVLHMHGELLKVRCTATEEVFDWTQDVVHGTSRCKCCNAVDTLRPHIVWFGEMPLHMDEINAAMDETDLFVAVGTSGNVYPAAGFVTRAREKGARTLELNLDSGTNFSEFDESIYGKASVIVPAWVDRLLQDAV
TcSir2rp1, sequence (Q4DVL9 entry or part of it): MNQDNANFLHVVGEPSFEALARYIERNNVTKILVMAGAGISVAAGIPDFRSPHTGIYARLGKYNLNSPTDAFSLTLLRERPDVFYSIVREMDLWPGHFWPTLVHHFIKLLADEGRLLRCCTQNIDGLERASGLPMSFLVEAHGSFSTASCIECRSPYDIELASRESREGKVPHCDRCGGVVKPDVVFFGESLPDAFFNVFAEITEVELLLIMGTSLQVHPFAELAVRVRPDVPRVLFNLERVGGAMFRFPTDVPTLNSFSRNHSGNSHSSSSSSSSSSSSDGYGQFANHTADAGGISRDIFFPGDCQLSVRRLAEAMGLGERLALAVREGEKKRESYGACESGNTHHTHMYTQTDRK

Broadly, the EC50 is the concentration at which the effect is half-maximal. A word on the CC50: it is the concentration that lowers cell viability or growth by half. Consider “3-(8Z)-8-Pentadecen-1-ylphenol [Compound 4]”, for which the concentration for a half-maximal effect (EC50) in data set [1] (setting [8]) was found to be 15.3 ± 2 µM; in data set [2] (setting [9]), 43.5 ± 2.32 µM. The half-maximal cytotoxic concentration (CC50) in data set [3] worked out at 45.47 ± 0.27 µM.

For the compound `O=C(Cn1ccnc1[N+](=O)[O-])NCc1ccccc1` [Benznidazole, reference compound], the concentration for a half-maximal effect (EC50) worked out at 3.13 ± 0.87 µM in data set [1] (Trypanosoma cruzi, 72 h); 11.4 ± 1.09 µM in data set [2] (Trypanosoma cruzi, Y strain, 24 h after incubation with compounds); 2.17 ± 0.09 µM in data set [5]. For the same compound, the 50% cytotoxic concentration (CC50) at 72 h in data set [4] (setting [10]) was more than 100 µM. Further, in data set [3], the “SI (selectivity index), ratio of CC50 (hFIB) to EC50 (amastigote)” value is listed as more than 32.

For `C=CC/C=C\C/C=C\CCCCCCCc1cc(O)cc(O)c1` [Compound 1, 5-(8Z,11Z)-8,11,14-Pentadecatrien-1-yl-1,3-benzenediol], the EC50 was 11.8 ± 0.4 µM in data set [1] (setting [11]) and 23.36 ± 0.12 µM in data set [2] (Trypanosoma cruzi, 24 h). The CC50 at 72 h in data set [4] is 47.17 ± 0.1 µM. In data set [3], the “SI (selectivity index), ratio of CC50 (hFIB) to EC50 (amastigote)” value was determined as 4.

As for `CCC/C=C\C/C=C\CCCCCCCc1cccc(O)c1C(=O)O` [Compound 5, 2-Hydroxy-6-(8Z,11Z)-8,11-pentadecadien-1-ylbenzoic acid], the EC50 is approximately 40 µM in data set [1] (setting [11]), 41.7 ± 5.53 µM in data set [1] (setting [8]), 6.08 ± 1.16 µM in data set [6] and 23.3 ± 2.51 µM in data set [7]. The “Trypomastigote EC50 ± SEM” value in data set [2] (setting [9]) is “no effect”. For the same compound, the CC50 at 72 h in data set [4] (setting [10]) was more than 100 µM. Further, in data set [3], the “hFIB CC50 ± SEM” value was “not toxic”.

`CCCCCC/C=C\CCCCCCCc1cccc(O)c1C(=O)O` [Compound 6, 2-Hydroxy-6-(8Z)-8-pentadecenylbenzoic acid]: the EC50 in data set [1] (setting [11]) was approximately 40 µM; in data set [1] (setting [8]) it was 42.4 ± 5.11 µM; in data set [6] it was 7.41 ± 0.65 µM; in data set [7], 16.2 ± 4.88 µM. The “Trypomastigote EC50 ± SEM” value in data set [2] (setting [9]) is reported as “no effect”. The CC50 at 72 h in data set [4] (setting [10]) is more than 100 µM. The “hFIB CC50 ± SEM” value in data set [3] is “not toxic”.
